Where a SMILES comes first, the peptide text is derived from it. [ ]: non-standard residue; d: D form. The star is where a group is joined. FITC = O=C1OC2(c3ccc(O)cc3Oc3cc(O)ccc32)c2ccc(NC(=S)*)cc21; Nle = CCCC[C@H](N)C(=O)O; Ahx = NCCCCCC(=O)O
How the values were obtained:
Bcl-xL = biological target: T1, Bcl-xL (Homo sapiens, UniProt Q07817, DEL26-81); experiment: Fluorescence anisotropy direct binding assay with Bcl-xL; details: for EC50: Bcl-xL titrated into FITC-labelled peptide (25-100 nM), 50 mM tris, 140 mM NaCl, pH 7.50, logistic fit
T1 construct: pET28a His-SUMO Bcl-xL (1-198, missing 26-81); made in house; host or cells: E. coli Rosetta 2
Experimental: (§1) Direct titration experiments were also performed for FITC labelled BID peptides (Fig. 5). […]
(§2) constructs were over-expressed in the E. coli strain Rosetta 2. Cells were resuspended in 50mM TRIS pH 8.0, 500mM NaCl, 15mM Imidazole and lysed by sonication. The clarified lysate was applied to a 5ml HisTrap column equilibrated with 50mM TRIS pH 8.0, 500mM NaCl, 15mM Imidazole. The HisTrap was then washed with 10 CV of 50mM TRIS pH 8.0, 500mM NaCl, 15mM Imidazole followed by 10 CV 50mM TRIS pH 8.0, 500mM NaCl, 25mM Imidazole. The fusion proteins were eluted in 50mM TRIS pH 8.0, 500mM NaCl, 300mM Imidazole. TheHis-SUMO tag was removed in overnight in dialysis into 50mM TRIS pH 8.0, 250mM NaCl in the presence of Smt3 protease, Ulp1, overnight at 4°C. Uncleaved material and His-SUMO were removed by reapplication of the sample to a HisTrap in 50mM TRIS pH 8.0, 250mM NaCl and the flow through containing Mcl- […]
(§3) The proteins were then filtered before further purification on a Superdex 75 (GE […]
(§4) proteins were concentrated and stored at -80°C.
(§5) The assays were performed as detailed in 10, 11.
(§6) The buffers used for fluorescence anisotropy were either phosphate buffer (40 mM sodium phosphate, 200 mM sodium chloride, 0.02 mg ml-1 bovine serum albumin, pH 7.50) or Tris buffer (50 mM Tris, 140 mM sodium chloride, pH 7.50). Phosphate buffer was used for all competition assays […]
(§7) Assays were run in 96 or 384 well Optiplates and were scanned using a Perkin Elmer EnVisionTM 2103 MultiLabel plate reader. Fluorescein labelled peptides used an excitation and emission wavelength of 480 (30) nm and 535 (40) nm respectively (dichroic mirror 505 nm) whilst BODIPY labelled peptides used an excitation and emission wavelength of 531 (25) nm and 595 (60) nm respectively (dichroic mirror 555 nm), […]
(§8) Plates were read after 1 h […]
(§9) respectively. Plates were read after 1 h.
(§10) For all variants of the labelled BID peptides (FITC-BID-WT,FITC-BID-MM, FITC-BID-DM and FITC-BID-Aib), the direct binding assays were performed in Tris Buffer in 384 well plates. In protein titrations, the protein concentration started from between 1-10 µM and was diluted over 24 points in a 3/4 dilution regime, with the concentration of the labelled peptide fixed at 25-100 nM. In the peptide titrations, the concentration of the labelled peptides started from 5 µM and were diluted in a 2/3 regime over 24 points, with the concentration of the protein fixed at 50 nM. Plates were read after 2 hours of incubation, and read again after 4 and 18 hours to ensure complete equilibration.
(§11) Processing of fluorescence anisotropy data
(§12) Fluorescence anisotropy data was processed using Microsoft Excel to calculate intensity, anisotropy […]
(§13) b (λ(rmax − r) + r − rmin) r = anisotropy, I = total intensity, P = perpendicular intensity, S = parallel intensity, Lb = fraction ligand bound, λ = Ibound/Iunbound , G = 1= instrumental factor. […]
(§14) the calculation of IC50 and EC50) or to the Kd model for the extraction of Kd values:
(§15) Where for the logisitic model; y = r = anisotropy, xo = mid-point of the curve between the rmax and rmin […]
(§16) For the Kd model; y = Lb*[FL], K = Kd, [FL] = Concentration of fluorescent ligand.

Mcl-1 = biological target: T2, Mcl-1 (Homo sapiens, UniProt Q07820); experiment: Fluorescence anisotropy direct binding assay with Mcl-1
T2 construct: His-SUMO (N, cleaved yes); made in house; host or cells: E. coli Rosetta 2
Experimental: as §1, §2, §3, §4, §5, §6, §7, §8, §9, §10, §11, §12, §13, §14, §15, §16

Bcl-xL/BODIPY-BAK = biological target: T3, Bcl-xL/BODIPY-BAK (Homo sapiens, UniProt Q07817, DEL26-81); experiment: Fluorescence anisotropy competition assay, inhibition of Bcl-xL/BODIPY-BAK interaction; format: binding
T3 construct: pET28a His-SUMO Bcl-xL (1-198, missing 26-81); His-SUMO (N, cleaved yes); made in house; host or cells: E. coli Rosetta 2
Experimental: (§17) To profile the binding behaviour of the constrained peptides we tested them in both competition displacement assays and direct binding assays. […] Of particular interest was the potential for the introduction of a constraint to have differential effects on protein specificity/selectivity. […] We next tested the constrained peptides in inhibition assays (Fig. 3a and b and Table 2). […]
as §2, §3, §4, §5, §6, §7, §8
(§18) respectively. Plates were read after 1 h. […]
as §11, §12, §13, §14, §15, §16

Mcl-1/FITC-NOXA-B = biological target: T4, Mcl-1/FITC-NOXA-B (Homo sapiens, UniProt Q07820); experiment: Fluorescence anisotropy competition assay, inhibition of Mcl-1/FITC-NOXA-B interaction; format: binding; details: Table S1, unconstrained BH3 peptides; FA competition; Mcl-1 150 nM, FITC-NOXA-B 50 nM; phosphate buffer pH 7.50; read after 1 h
T4 construct: His-SUMO (N, cleaved yes); made in house; host or cells: E. coli Rosetta 2
Experimental: as §17, §2, §3, §4, §5, §6, §7, §8, §18, §11, §12, §13, §14, §15, §16

T3 sequence (Q07817 with tags, fused parts or gaps DEL26-81): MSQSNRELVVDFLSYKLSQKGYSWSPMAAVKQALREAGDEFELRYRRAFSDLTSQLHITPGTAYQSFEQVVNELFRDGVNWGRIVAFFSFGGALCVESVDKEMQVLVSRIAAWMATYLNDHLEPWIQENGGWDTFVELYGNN
T1 sequence (Q07817 with tags, fused parts or gaps DEL26-81): as above
T2 sequence (Q07820 172-327): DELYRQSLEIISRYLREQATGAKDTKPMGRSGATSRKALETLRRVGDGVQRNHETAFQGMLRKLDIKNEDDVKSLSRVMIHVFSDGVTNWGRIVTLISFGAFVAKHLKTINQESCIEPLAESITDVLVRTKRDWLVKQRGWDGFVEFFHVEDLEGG
T4 sequence (Q07820 172-327): as above

Row | Molecule | EC50 (Bcl-xL; FA direct binding) | EC50 (Mcl-1) | IC50 (Bcl-xL/BODIPY-BAK) | also measured
1 | CCCC[C@H](NC(=O)[C@]1(C)CCCC=CCCC[C@](C)(NC(=O)[C@H](C)NC(=O)[C@H](CC(C)C)NC(=O)[C@H](Cc2c[nH]cn2)NC(=O)[C@H](CCCNC(=N)N)NC(=O)[C@H](C)NC(=O)[C@@H](NC(=O)[C@H](CC(N)=O)NC(=O)[C@H](CCCNC(=N)N)NC(=O)[C@@H](NC(=O)[C@@H](NC(=O)[C@H](CC(=O)O)NC(=O)[C@H](CCC(=O)O)NC(=O)CCNC(=S)Nc2ccc3c(c2)C(=O)OC32c3ccc(O)cc3Oc3cc(O)ccc32)[C@@H](C)CC)[C@@H](C)CC)[C@@H](C)CC)C(=O)N[C@@H](C(C)C)C(=O)NCC(=O)N[C@@H](CC(=O)O)C(=O)N1)C(=O)N[C@@H](CC(=O)O)C(=O)N[C@@H](CCCNC(=N)N)C(=O)N[C@@H](CO)C(=O)N[C@H](C(=O)N[C@@H](Cc1c[nH]c2ccccc12)C(N)=O)[C@@H](C)CC [FITC-BID-DM] | 159 ± 13 nM | 129 ± 3 nM | – | –
2 | Ac-LWAAQRYGRELRRMSDEFEGSFDKL-NH2 [BAD, reference compound] | – | – | 140 ± 15 nM | Mcl-1/ FITC-NOXA-B IC50 (Mcl-1/FITC-NOXA-B): no inhibition
3 | CC[C@H](C)[C@H](NC(=O)[C@H](CCCNC(=N)N)NC(=O)[C@H](CCCNC(=N)N)NC(=O)[C@H](CC(C)C)NC(=O)[C@H](CCC(N)=O)NC(=O)[C@H](C)NC(=O)[C@H](CS)NC(=O)[C@H](CCC(=O)O)NC(=O)[C@H](CC(=O)O)NC(=O)[C@H](CCCCN)NC(=O)[C@H](CC(C)C)NC(=O)[C@H](CC(=O)O)NC(=O)[C@H](C)NC(=O)[C@@H]1CCCN1C(=O)CCCCCNC(=S)Nc1ccc2c(c1)C(=O)OC21c2ccc(O)cc2Oc2cc(O)ccc21)C(=O)NCC(=O)N[C@@H](CC(=O)O)C(=O)N[C@@H](CCCCN)C(=O)N[C@H](C(=O)N[C@@H](CC(N)=O)C(=O)N[C@@H](CC(C)C)C(N)=O)C(C)C [FITC-NOXA-B] | – | – | – | Bcl-xL Kd (Bcl-xL; FA direct binding, labelled unconstrained BH3 peptide, Kd model (Table S1), phosphate buffer for BODIPY-BAK and FITC-NOXA-B, Tris buffer for FITC-BID): no binding; Kd (Mcl-1): 18.7 ± 0.9 nM
4 | CCCC[C@H](NC(=O)C(C)(C)NC(=O)[C@H](CC(=O)O)NC(=O)CNC(=O)[C@@H](NC(=O)C(C)(C)NC(=O)[C@H](C)NC(=O)[C@H](CC(C)C)NC(=O)[C@H](Cc1c[nH]cn1)NC(=O)[C@H](CCCNC(=N)N)NC(=O)[C@H](C)NC(=O)[C@@H](NC(=O)[C@H](CC(N)=O)NC(=O)[C@H](CCCNC(=N)N)NC(=O)[C@@H](NC(=O)[C@@H](NC(=O)[C@H](CC(=O)O)NC(=O)[C@H](CCC(=O)O)NC(C)=O)[C@@H](C)CC)[C@@H](C)CC)[C@@H](C)CC)C(C)C)C(=O)N[C@@H](CC(=O)O)C(=O)N[C@@H](CCCNC(=N)N)C(=O)N[C@@H](CO)C(=O)N[C@H](C(=O)N[C@@H](Cc1c[nH]c2ccccc12)C(N)=O)[C@@H](C)CC [BID-AIB] | – | – | 1140 ± 50 nM | –
5 | CC[C@H](C)[C@H](NC(C)=O)C(=O)N[C@@H](Cc1c[nH]c2ccccc12)C(=O)N[C@H](C(=O)N[C@@H](C)C(=O)N[C@@H](CCC(N)=O)C(=O)N[C@@H](CCC(=O)O)C(=O)N[C@@H](CC(C)C)C(=O)N[C@@H](CCCNC(=N)N)C(=O)N[C@@]1(C)CCCC=CCCC[C@@](C)(C(=O)N[C@@H](Cc2ccccc2)C(=O)N[C@@H](CC(N)=O)C(=O)N[C@@H](C)C(=O)N[C@@H](Cc2ccc(O)cc2)C(=O)N[C@@H](Cc2ccc(O)cc2)C(=O)N[C@@H](C)C(=O)N[C@@H](CCCNC(=N)N)C(=O)N[C@@H](CCCNC(=N)N)C(N)=O)NC(=O)[C@H](CC(=O)O)NC(=O)CNC(=O)[C@H]([C@@H](C)CC)NC1=O)[C@@H](C)CC [BIM-DM] | – | – | 4000 ± 620 nM | –

The next lines start with results.

Row | EC50 (Bcl-xL; FA direct binding) | EC50 (Mcl-1) | IC50 (Bcl-xL/BODIPY-BAK) | Molecule | also measured
6 | 79 ± 6 nM | 98 ± 8.9 nM | – | CCCC[C@H](NC(=O)[C@H](CO)NC(=O)[C@H](CC(=O)O)NC(=O)CNC(=O)[C@@H](NC(=O)[C@H](CCC(N)=O)NC(=O)[C@H](C)NC(=O)[C@H](CC(C)C)NC(=O)[C@H](Cc1c[nH]cn1)NC(=O)[C@H](CCCNC(=N)N)NC(=O)[C@H](C)NC(=O)[C@@H](NC(=O)[C@H](CC(N)=O)NC(=O)[C@H](CCCNC(=N)N)NC(=O)[C@@H](NC(=O)[C@@H](NC(=O)[C@H](CC(=O)O)NC(=O)[C@H](CCC(=O)O)NC(=O)CCCCCNC(=S)Nc1ccc2c(c1)C(=O)OC21c2ccc(O)cc2Oc2cc(O)ccc21)[C@@H](C)CC)[C@@H](C)CC)[C@@H](C)CC)C(C)C)C(=O)N[C@@H](CC(=O)O)C(=O)N[C@@H](CCCNC(=N)N)C(=O)N[C@@H](CO)C(=O)N[C@H](C(=O)N[C@@H](Cc1c[nH]c2ccccc12)C(N)=O)[C@@H](C)CC [FITC-BID-WT] ({FITC-Ahx}-EDIIRNIARHLAQVGDS[Nle]DRSIW-NH2) | Kd (Bcl-xL): 21 ± 6.6 nM; Kd (Mcl-1): 50 ± 20 nM
7 | 186 ± 24 nM | 153 ± 12 nM | – | CCCC[C@H](NC(=O)[C@@H]1CCC/C=C\CCC[C@H](NC(=O)[C@H](C)NC(=O)[C@H](CC(C)C)NC(=O)[C@H](Cc2c[nH]cn2)NC(=O)[C@H](CCCNC(=N)N)NC(=O)[C@H](C)NC(=O)[C@@H](NC(=O)[C@H](CC(N)=O)NC(=O)[C@H](CCCNC(=N)N)NC(=O)[C@@H](NC(=O)[C@@H](NC(=O)[C@H](CC(=O)O)NC(=O)[C@H](CCC(=O)O)NC(=O)CCNC(=S)Nc2ccc3c(c2)C(=O)OC32c3ccc(O)cc3Oc3cc(O)ccc32)[C@@H](C)CC)[C@@H](C)CC)[C@@H](C)CC)C(=O)N[C@@H](C(C)C)C(=O)NCC(=O)N[C@@H](CC(=O)O)C(=O)N1)C(=O)N[C@@H](CC(=O)O)C(=O)N[C@@H](CCCNC(=N)N)C(=O)N[C@@H](CO)C(=O)N[C@H](C(=O)N[C@@H](Cc1c[nH]c2ccccc12)C(N)=O)[C@@H](C)CC [FITC-BID-MM] | –

Reference: PMC5618334, “Hydrocarbon constrained peptides – understanding preorganisation and binding affinity” (Chemical Science, 2016)
